Source: patent US8088815B2, “Spiroindolinone pyrrolidines” (Hoffman-La Roche Inc., priority 2009, dated 2012)

Target: interaction between p53 and MDM2 proteins (Homo sapiens, UniProt Q00987)
Test: HTRF assay of inhibition of the p53-MDM2 interaction (GST-MDM2 / biotinylated p53 peptide)
Assay type: binding
Details: recombinant GST-tagged MDM2 and biotinylated p53 peptide, bsa:0.02%
Protocol: The ability of the compounds to inhibit the interaction between p53 and MDM2 proteins was measured by an HTRF (homogeneous time-resolved fluorescence) assay in which recombinant GST-tagged MDM2 binds to a peptide that resembles the MDM2-interacting region of p53. Binding of GST-MDM2 protein and p53-peptide (biotinylated on its N-terminal end) is registered by the FRET (fluorescence resonance energy transfer) between Europium (Eu)-labeled anti-GST antibody and streptavidin-conjugated Allophycocyanin (APC).
Add 10 uL diluted compounds (1:5 dilution in reaction buffer) to each well, mix by shaking. Add 20 uL biotinylated p53 peptide (180 nM working solution) in reaction buffer to each well and mix on shaker. Incubate at 37° C. for 1 h. Add 20 uL streptavidin-APC and Eu-anti-GST antibody mixture (6 nM Eu-anti-GST and 60 nM streptavidin-APC working solution) in TBS buffer with 0.2% BSA, shake at room temperature for 30 minutes and read using a TRF-capable plate reader at
665 and 615 nm (Victor 5, Perkin ElmerWallac). If not specified, the reagents were purchased from Sigma Chemical Co.

Chain of interaction between p53 and MDM2 proteins (Q00987 whole entry): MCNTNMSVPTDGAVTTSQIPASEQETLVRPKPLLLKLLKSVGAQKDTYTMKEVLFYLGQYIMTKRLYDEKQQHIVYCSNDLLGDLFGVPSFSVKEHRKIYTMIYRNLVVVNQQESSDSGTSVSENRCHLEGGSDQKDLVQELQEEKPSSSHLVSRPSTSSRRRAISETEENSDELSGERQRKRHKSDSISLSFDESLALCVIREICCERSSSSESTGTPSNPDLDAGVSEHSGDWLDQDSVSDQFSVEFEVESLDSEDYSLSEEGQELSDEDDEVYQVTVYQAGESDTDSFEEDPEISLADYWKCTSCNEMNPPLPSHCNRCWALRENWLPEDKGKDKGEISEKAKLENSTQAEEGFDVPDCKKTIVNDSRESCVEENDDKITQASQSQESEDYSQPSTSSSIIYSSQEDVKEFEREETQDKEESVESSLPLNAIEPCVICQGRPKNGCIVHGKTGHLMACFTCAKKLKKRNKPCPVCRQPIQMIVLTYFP

Molecule	IC50
COc1cc(C(=O)O)ccc1NC(=O)[C@@H]1N[C@@H](CC(C)(C)C)[C@@]2(C(=O)Nc3cc(Cl)ccc32)[C@H]1c1cc(F)cc(Cl)c1 (racemic) [Example 125, rac-4-{[(2′S,3′R,4′R,5′R)-6-chloro-4′-(3-chloro-5-fluoro-phenyl)-2′-(2,2-dimethyl-propyl)-2-oxo-1,2-dihydro-spiro[indole-3,3′-pyrrolidine]-5′-carbonyl]-amino}-3-methoxy-benzoic acid]	7 nM
rac-4-{[(2′S,3′R,4′R,5′R)-6-chloro-4′-(3-chloro-4-fluoro-phenyl)-2′-(2,2-dimethyl-propyl)-2-oxo-1,2-dihydro-spiro[indole-3,3′-pyrrolidine]-5′-carbonyl]-amino}-3-methoxy-benzoic acid [Example 127]	12 nM
CC(C)(C)C[C@@H]1N[C@@H](C(=O)Nc2ccc(C(N)=O)cc2)[C@H](c2cccc(Cl)c2F)[C@]12C(=O)Nc1cc(Cl)c(F)cc12 [Example 50, chiral (2′S,3′R,4′S,5′S)-6-chloro-4′-(3-chloro-2-fluoro-phenyl)-2′-(2,2-dimethyl-propyl)-5-fluoro-2-oxo-1,2-dihydro-spiro[indole-3,3′-pyrrolidine]-5′-carboxylic acid (4-carbamoyl-phenyl)-amide]	6 nM
CC(C)(C)C[C@@H]1N[C@@H](C(=O)Nc2ccc(C#N)cc2)[C@H](c2cccc(Cl)c2F)[C@]12C(=O)Nc1cc(Cl)c(F)cc12 (racemic) [Example 48, rac-(2′S,3′R,4′S,5′R)-6-chloro-4′-(3-chloro-2-fluoro-phenyl)-2′-(2,2-dimethyl-propyl)-5-fluoro-2-oxo-1,2-dihydro-spiro[indole-3,3′-pyrrolidine]-5′-carboxylic acid (4-cyano-phenyl)-amide]	16 nM
Cn1c(NC(=O)[C@@H]2N[C@@H](CC(C)(C)C)[C@@]3(C(=O)Nc4cc(Cl)ccc43)[C@H]2c2cccc(Cl)c2F)ccc1C(=O)OC(C)(C)C (racemic) [Example 194, rac-5-{[(2′S,3′R,4′S,5′R)-6-chloro-4′-(3-chloro-2-fluoro-phenyl)-2′-(2,2-dimethyl-propyl)-2-oxo-1,2-dihydro-spiro[indole-3,3′-pyrrolidine]-5′-carbonyl]amino}-1-methyl-1H-pyrrole-2-carboxylic acid tert-butyl ester]	55 nM
COc1cc(C(=O)O)ccc1NC(=O)[C@@H]1N[C@@H](CC(C)(C)C)[C@@]2(C(=O)Nc3cc(Cl)ccc32)[C@H]1c1cccc(Cl)c1 (racemic) [Example 108, rac-4-{[(2′S,3′R,4′R,5′R)-6-chloro-4′-(3-chloro-phenyl)-2′-(2,2-dimethyl-propyl)-2-oxo-1,2-dihydro-spiro[indole-3,3′-pyrrolidine]-5′-carbonyl]amino}-3-methoxy-benzoic acid]	9 nM
COC(=O)c1ccc(NC(=O)[C@@H]2N[C@@H](CC(C)(C)C)[C@@]3(C(=O)Nc4cc(Cl)ccc43)[C@H]2c2cc(F)cc(Cl)c2)c(OC)c1 (racemic) [Example 124, rac-4-{[(2′S,3′R,4′R,5′R)-6-chloro-4′-(3-chloro-5-fluoro-phenyl)-2′-(2,2-dimethyl-propyl)-2-oxo-1,2-dihydro-spiro[indole-3,3′-pyrrolidine]-5′-carbonyl]-amino}-3-methoxy-benzoic acid methyl ester]	15 nM
CC(C)(C)C[C@@H]1N[C@@H](C(=O)Nc2ccc(C#N)cc2)[C@H](c2ccc(F)c(Cl)c2)[C@]12C(=O)Nc1cc(Cl)ccc12 (racemic) [Example 83, rac-(2′S,3′R,4′R,5′R)-6-chloro-4′-(3-chloro-4-fluoro-phenyl)-2′-(2,2-dimethyl-propyl)-2-oxo-1,2-dihydro-spiro[indole-3,3′-pyrrolidine]-5′-carboxylic acid (4-cyano-phenyl)-amide]	34 nM

The remaining lines, values ahead:

IC50	Molecule
4 nM	COc1cc(CC(N)=O)ccc1NC(=O)[C@@H]1N[C@@H](CC(C)(C)C)[C@@]2(C(=O)Nc3cc(Cl)ccc32)[C@H]1c1cccc(Cl)c1F [Example 161, chiral (2′S,3′R,4′S,5′R)-6-chloro-4′-(3-chloro-2-fluoro-phenyl)-2′-(2,2-dimethyl-propyl)-2-oxo-1,2-dihydro-spiro[indole-3,3′-pyrrolidine]-5′-carboxylic acid (4-carbamoylmethyl-2-methoxy-phenyl)-amide]
4 nM	CC(C)(C)C[C@@H]1N[C@@H](C(=O)Nc2ccc(CCC(=O)O)cc2)[C@H](c2cccc(Cl)c2F)[C@]12C(=O)Nc1cc(Cl)ccc12 (racemic) [Example 209, rac-3-(4-{[(2′S,3′R,4′S,5′R)-6-chloro-4′-(3-chloro-2-fluoro-phenyl)-2′-(2,2-dimethyl-propyl)-2-oxo-1,2-dihydro-spiro[indole-3,3′-pyrrolidine]-5′-carbonyl]-amino}-phenyl)-propionic acid]
11 nM	CC(C)(C)C[C@@H]1N[C@@H](C(=O)Nc2ccc(C(=O)O)cc2)[C@H](c2cccc(Cl)c2F)[C@]12C(=O)Nc1cc(Cl)ccc12 (racemic) [Example 6, rac-4-{[(2′S,3′R,4′S,5′R)-6-chloro-4′-(3-chloro-2-fluoro-phenyl)-2′-(2,2-dimethyl-propyl)-2-oxo-1,2-dihydro-spiro[indole-3,3′-pyrrolidine]-5′-carbonyl]amino}-benzoic acid]
7 nM	COc1cc(C(=O)NC#N)ccc1NC(=O)[C@@H]1N[C@@H](CC(C)(C)C)[C@@]2(C(=O)Nc3cc(Cl)ccc32)[C@H]1c1cccc(Cl)c1F [Example 223, chiral (2′S,3′R,4′S,5′R)-6-chloro-4′-(3-chloro-2-fluorophenyl)-N-(4-(cyanocarbamoyl)-2-methoxyphenyl)-2′-(2,2-dimethyl-propyl)-2-oxospiro[indoline-3,3′-pyrrolidine]-5′-carboxamide]
20 nM	COC(=O)c1cc(OC)c(NC(=O)[C@@H]2N[C@@H](CC(C)(C)C)[C@@]3(C(=O)Nc4cc(Cl)ccc43)[C@H]2c2cccc(Cl)c2F)cc1F (racemic) [Example 214, rac-4-{[(2′S,3′R,4′S,5′R)-6-chloro-4′-(3-chloro-2-fluoro-phenyl)-2′-(2,2-dimethyl-propyl)-2-oxo-1,2-dihydro-spiro[indole-3,3′-pyrrolidine]-5′-carbonyl]amino}-2-fluoro-5-methoxy-benzoic acid methyl ester]
5 nM	COc1cc(C(=O)O)c(F)cc1NC(=O)[C@@H]1N[C@@H](CC(C)(C)C)[C@@]2(C(=O)Nc3cc(Cl)ccc32)[C@H]1c1cccc(Cl)c1F [Example 221, chiral 4-{[(2′S,3′R,4′S,5′R)-6-chloro-4′-(3-chloro-2-fluoro-phenyl)-2′-(2,2-dimethyl-propyl)-2-oxo-1,2-dihydro-spiro[indole-3,3′-pyrrolidine]-5′-carbonyl]amino}-2-fluoro-5-methoxy-benzoic acid]
6 nM	COc1cc(OCC[S+](C)[O-])ccc1NC(=O)[C@@H]1N[C@@H](CC(C)(C)C)[C@@]2(C(=O)Nc3cc(Cl)ccc32)[C@H]1c1cccc(Cl)c1F (single isomer, unassigned) [Example 171, chiral (2′S,3′R,4′S,5′R)-6-chloro-4′-(3-chloro-2-fluoro-phenyl)-2′-(2,2-dimethyl-propyl)-2-oxo-1,2-dihydro-spiro[indole-3,3′-pyrrolidine]-5′-carboxylic acid [4-(2-methanesulfinyl-ethoxy)-2-methoxy-phenyl]-amide]
5 nM	CC(C)(C)C[C@@H]1N[C@@H](C(=O)Nc2ccc(CCC(=O)O)cc2)[C@H](c2cccc(Cl)c2F)[C@]12C(=O)Nc1cc(Cl)ccc12 [Example 222, chiral 3-(4-{[(2′S,3′R,4′S,5′R)-6-chloro-4′-(3-chloro-2-fluoro-phenyl)-2′-(2,2-dimethyl-propyl)-2-oxo-1,2-dihydro-spiro[indole-3,3′-pyrrolidine]-5′-carbonyl]-amino}-phenyl)-propionic acid]
10 nM	COc1cc(OC2CCOCC2)ccc1NC(=O)[C@@H]1N[C@@H](CC(C)(C)C)[C@@]2(C(=O)Nc3cc(Cl)ccc32)[C@H]1c1cccc(Cl)c1F [Example 157, chiral (2′S,3′R,4′S,5′R)-6-chloro-4′-(3-chloro-2-fluoro-phenyl)-2′-(2,2-dimethyl-propyl)-2-oxo-1,2-dihydro-spiro[indole-3,3′-pyrrolidine]-5′-carboxylic acid [2-methoxy-4-(tetrahydro-pyran-4-yloxy)-phenyl]-amide]
14 nM	COc1cc(CC(=O)OC(C)(C)C)ccc1NC(=O)[C@@H]1N[C@@H](CC(C)(C)C)[C@@]2(C(=O)Nc3cc(Cl)ccc32)[C@H]1c1cccc(Cl)c1F [Example 159, chiral (4-{[(2′S,3′R,4′S,5′R)-6-chloro-4′-(3-chloro-2-fluoro-phenyl)-2′-(2,2-dimethyl-propyl)-2-oxo-1,2-dihydro-spiro[indole-3,3′-pyrrolidine]-5′-carbonyl]amino}-3-methoxy-phenyl)-acetic acid tert-butyl ester]
7 nM	COc1cc(OCCO)ncc1NC(=O)[C@@H]1N[C@@H](CC(C)(C)C)[C@@]2(C(=O)Nc3cc(Cl)ccc32)[C@H]1c1cccc(Cl)c1F (racemic) [Example 192, rac-(2′S,3′R,4′S,5′R)-6-chloro-4′-(3-chloro-2-fluoro-phenyl)-2′-(2,2-dimethyl-propyl)-2-oxo-1,2-dihydro-spiro[indole-3,3′-pyrrolidine]-5′-carboxylic acid [6-(2-hydroxy-ethoxy)-4-methoxy-pyridin-3-yl]-amide]
